In US7880007B2, “Bicyclic substituted phenyl piperidine modulators of muscarinic receptors” (Vertex Pharmaceuticals Incorporated, priority 2004, dated 2011):

What was measured:
Type in all cases: cell-based
M3 muscarinic receptor = target: T1, M3 muscarinic receptor (Homo sapiens, UniProt P20309); assay: Functional mobilization of intracellular calcium (FLIPR), M3-CHO cells; settings: for M3 Activity: M3-CHO cells, calcium mobilization (FLIPR)
T1 construct: expressed in transfected cells; host or cells: CHO (M3-CHO)
T1 sequence (P20309 whole entry): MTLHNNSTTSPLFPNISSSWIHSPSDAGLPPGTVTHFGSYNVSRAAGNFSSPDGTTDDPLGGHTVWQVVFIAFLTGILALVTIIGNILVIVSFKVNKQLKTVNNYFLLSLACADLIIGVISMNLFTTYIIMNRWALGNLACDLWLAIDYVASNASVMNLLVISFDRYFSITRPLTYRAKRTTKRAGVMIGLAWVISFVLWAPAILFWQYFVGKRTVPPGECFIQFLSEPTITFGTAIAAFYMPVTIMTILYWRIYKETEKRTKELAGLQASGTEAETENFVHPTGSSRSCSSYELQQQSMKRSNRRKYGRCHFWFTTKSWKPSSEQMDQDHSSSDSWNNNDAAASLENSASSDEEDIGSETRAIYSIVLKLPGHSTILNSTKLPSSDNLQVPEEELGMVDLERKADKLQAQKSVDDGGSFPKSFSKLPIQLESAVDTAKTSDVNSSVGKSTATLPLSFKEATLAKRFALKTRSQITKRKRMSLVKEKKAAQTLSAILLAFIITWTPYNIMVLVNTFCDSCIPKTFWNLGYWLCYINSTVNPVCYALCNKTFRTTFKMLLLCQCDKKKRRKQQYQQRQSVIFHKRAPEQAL
In short: (§1)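 FLIPR fluorescence (ex 488, em 540 nm) recorded 60 sec after compound addition to dye-loaded CHO cells. Agonist mode: compound alone. Antagonist mode: 15 min compound pre-incubation, then carbachol at EC80, or co-application. Efficacy expressed as % of maximal carbachol response.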

M1 muscarinic receptor = target: T2, M1 muscarinic receptor (Homo sapiens, UniProt P11229); assay: Functional mobilization of intracellular calcium (FLIPR), M1-CHO cells; settings: for M1 Activity: M1-CHO cells, calcium mobilization (FLIPR)
T2 construct: expressed in transfected cells; host or cells: CHO (M1-CHO)
T2 sequence (P11229 1-460): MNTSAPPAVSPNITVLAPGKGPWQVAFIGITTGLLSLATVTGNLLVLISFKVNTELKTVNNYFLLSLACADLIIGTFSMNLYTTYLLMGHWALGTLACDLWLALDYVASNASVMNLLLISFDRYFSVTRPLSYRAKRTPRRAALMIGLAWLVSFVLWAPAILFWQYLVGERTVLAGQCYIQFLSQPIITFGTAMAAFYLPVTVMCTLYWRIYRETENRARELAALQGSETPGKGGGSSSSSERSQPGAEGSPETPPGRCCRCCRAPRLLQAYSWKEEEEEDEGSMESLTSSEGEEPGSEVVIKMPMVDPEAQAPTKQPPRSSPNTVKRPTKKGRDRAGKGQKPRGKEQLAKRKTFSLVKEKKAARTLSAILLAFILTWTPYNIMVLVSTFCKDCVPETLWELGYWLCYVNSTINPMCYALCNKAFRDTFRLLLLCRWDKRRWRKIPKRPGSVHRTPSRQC
In short: as §1

M2 muscarinic receptor = target: T3, M2 muscarinic receptor (Homo sapiens, UniProt P08172); assay: Functional mobilization of intracellular calcium (FLIPR), M2-CHO cells; settings: for M2 Activity: M2-CHO cells, calcium mobilization (FLIPR)
T3 construct: expressed in transfected cells; host or cells: CHO (M2-CHO)
T3 sequence (P08172 1-466): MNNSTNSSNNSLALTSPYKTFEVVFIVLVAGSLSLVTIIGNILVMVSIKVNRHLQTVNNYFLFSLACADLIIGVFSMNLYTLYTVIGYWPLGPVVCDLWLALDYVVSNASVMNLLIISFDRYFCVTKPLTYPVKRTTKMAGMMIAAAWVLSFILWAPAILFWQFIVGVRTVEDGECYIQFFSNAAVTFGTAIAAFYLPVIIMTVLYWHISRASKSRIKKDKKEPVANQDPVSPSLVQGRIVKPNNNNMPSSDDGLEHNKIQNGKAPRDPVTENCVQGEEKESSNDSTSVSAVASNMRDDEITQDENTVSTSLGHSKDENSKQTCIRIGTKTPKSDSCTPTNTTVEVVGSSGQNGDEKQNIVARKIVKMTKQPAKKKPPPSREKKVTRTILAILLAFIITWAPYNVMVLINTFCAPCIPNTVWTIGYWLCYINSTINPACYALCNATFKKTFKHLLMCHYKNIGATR
In short: as §1

M4 muscarinic receptor = target: T4, M4 muscarinic receptor (Homo sapiens, UniProt P08173); assay: Functional mobilization of intracellular calcium (FLIPR), M4-CHO cells; settings: for M4 Activity: M4-CHO cells, calcium mobilization (FLIPR)
T4 construct: expressed in transfected cells; host or cells: CHO (M4-CHO)
T4 sequence (P08173 1-479): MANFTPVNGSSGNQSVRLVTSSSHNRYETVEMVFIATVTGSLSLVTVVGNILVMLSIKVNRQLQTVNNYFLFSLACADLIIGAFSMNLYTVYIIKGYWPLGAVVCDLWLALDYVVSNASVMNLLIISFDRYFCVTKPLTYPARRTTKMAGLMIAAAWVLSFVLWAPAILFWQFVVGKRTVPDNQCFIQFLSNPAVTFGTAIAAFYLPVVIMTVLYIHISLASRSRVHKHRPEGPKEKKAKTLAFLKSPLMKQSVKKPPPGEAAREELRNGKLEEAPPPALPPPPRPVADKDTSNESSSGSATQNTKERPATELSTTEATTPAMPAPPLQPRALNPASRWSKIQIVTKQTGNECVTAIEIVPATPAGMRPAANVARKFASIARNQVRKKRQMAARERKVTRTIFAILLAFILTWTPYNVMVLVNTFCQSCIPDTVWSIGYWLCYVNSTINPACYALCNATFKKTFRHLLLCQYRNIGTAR
In short: as §1

[1] = 100% efficacy = maximum response obtained with the Carbachol control
[2] = 100% efficacy is the maximum response obtained with the Carbachol control

Emax (M3 muscarinic receptor; [1])	Emax (M1 muscarinic receptor; [1])	Emax (M2 muscarinic receptor; [1])	Emax (M4 muscarinic receptor; [1])	Emax (M3 muscarinic receptor; [2])	Emax (M1 muscarinic receptor; [2])	Emax (M2 muscarinic receptor; [2])	Emax (M4 muscarinic receptor; [2])	Compound	M3 Activity (M3 muscarinic receptor)	M1 Activity (M1 muscarinic receptor)	M2 Activity (M2 muscarinic receptor)	M4 Activity (M4 muscarinic receptor)	M3 Efficacy (M3 muscarinic receptor; [1])	M1 Efficacy (M1 muscarinic receptor; [1])	M2 Efficacy (M2 muscarinic receptor; [1])	M4 Efficacy (M4 muscarinic receptor; [1])
< 25%	25 to 100%	< 25%	25 to 100%					c1ccc(C2CCN([C@H]3C[C@H]4CC[C@H]3C4)CC2)c(-c2ccc3c(c2)OCO3)c1 [Compound 195]	+ (activity was measured to be greater than 5.0 μM)	+ (activity was measured to be greater than 5.0 μM)	+ (activity was measured to be greater than 5.0 μM)	+++ (activity was measured to be less than 1.0 μM)				
< 25%	25 to 100%	25 to 100%	25 to 100%					COCCOc1ccccc1C1CCN([C@H]2C[C@H]3CC[C@H]2C3)CC1 [Compound 111]	+ (activity was measured to be greater than 5.0 μM)	++ (activity was measured to be from 1.0 μM to 5.0 μM)	+ (activity was measured to be greater than 5.0 μM)	+++ (activity was measured to be less than 1.0 μM)				
< 25%	25 to 100%	< 25%	25 to 100%					COc1cc(F)ccc1C1CCN([C@@H]2C[C@H]3CC[C@H]2C3)CC1 [Compound 35]	+ (activity was measured to be greater than 5.0 μM)	+ (activity was measured to be greater than 5.0 μM)	+ (activity was measured to be greater than 5.0 μM)	+++ (activity was measured to be less than 1.0 μM)				
								COc1ccc(Cl)cc1C1CCN(C2CCC(=NOc3ccccc3)CC2)CC1 (stereo not drawn) [Compound 336]	+ (activity was measured to be greater than 5.0 μM)	++ (activity was measured to be from 1.0 μM to 5.0 μM)	+ (activity was measured to be greater than 5.0 μM)	+++ (activity was measured to be less than 1.0 μM)	+ (efficacy was calculated to be less than 25%)	++ (efficacy was calculated to be from 100% to 25%)	+ (efficacy was calculated to be less than 25%)	++ (efficacy was calculated to be from 100% to 25%)
< 25%	< 25%	< 25%	< 25%					COc1ccc(-c2ccc(C(=O)N3CCCCC3)cc2)cc1C1CCN([C@H]2C[C@H]3CC[C@H]2C3)CC1 [Compound 128]	+ (activity was measured to be greater than 5.0 μM)	+ (activity was measured to be greater than 5.0 μM)	+ (activity was measured to be greater than 5.0 μM)	++ (activity was measured to be from 1.0 μM to 5.0 μM)				
< 25%	< 25%	< 25%	25 to 100%					COc1ccccc1C1CCN(C2CCCC2)CC1 [Compound 15]	+ (activity was measured to be greater than 5.0 μM)	+ (activity was measured to be greater than 5.0 μM)	+ (activity was measured to be greater than 5.0 μM)	+++ (activity was measured to be less than 1.0 μM)				
				< 25%	< 25%	< 25%	< 25%	COc1ccc(-c2ccc(C(=O)NC3CC3)cc2)cc1C1CCN([C@H]2C[C@H]3CC[C@H]2C3)CC1 [Compound 401]	+ (activity was measured to be greater than 5.0 μM)	+ (activity was measured to be greater than 5.0 μM)	+ (activity was measured to be greater than 5.0 μM)	+ (activity was measured to be greater than 5.0 μM)				
< 25%	< 25%	< 25%	25 to 100%					Cc1c(C2CCN(C3CCOCC3)CC2)cccc1C(F)(F)F [Compound 333]	+ (activity was measured to be greater than 5.0 μM)	+ (activity was measured to be greater than 5.0 μM)	+ (activity was measured to be greater than 5.0 μM)	++ (activity was measured to be from 1.0 μM to 5.0 μM)				
< 25%	25 to 100%	< 25%	25 to 100%					Oc1ccccc1C1CCN(C2CC3CC[C@H]2C3)CC1 (stereo in doubt) [Compound 229, 2-(1-((1S,2R,4R)-bicyclo[2.2.1]heptan-2-yl)piperidin-4-yl)phenol]	+ (activity was measured to be greater than 5.0 μM)	++ (activity was measured to be from 1.0 μM to 5.0 μM)	+ (activity was measured to be greater than 5.0 μM)	++ (activity was measured to be from 1.0 μM to 5.0 μM)				
< 25%	< 25%	< 25%	< 25%					COc1ccccc1C1CCN(C2CCC(C(C)(C)C)CC2)CC1 (stereo not drawn) [Compound 152]	+ (activity was measured to be greater than 5.0 μM)	+ (activity was measured to be greater than 5.0 μM)	+ (activity was measured to be greater than 5.0 μM)	+ (activity was measured to be greater than 5.0 μM)				
< 25%	< 25%	< 25%	25 to 100%					COc1ccc(Cl)cc1C1CCN(CC2CC3CCC2CC3)CC1 (stereo not drawn) [Compound 280]	+ (activity was measured to be greater than 5.0 μM)	+ (activity was measured to be greater than 5.0 μM)	+ (activity was measured to be greater than 5.0 μM)	++ (activity was measured to be from 1.0 μM to 5.0 μM)				

Compound	Emax (M3 muscarinic receptor; [1])	Emax (M1 muscarinic receptor; [1])	Emax (M2 muscarinic receptor; [1])	Emax (M4 muscarinic receptor; [1])	Emax (M3 muscarinic receptor; [2])	Emax (M1 muscarinic receptor; [2])	Emax (M2 muscarinic receptor; [2])	Emax (M4 muscarinic receptor; [2])	M3 Activity (M3 muscarinic receptor)	M1 Activity (M1 muscarinic receptor)	M2 Activity (M2 muscarinic receptor)	M4 Activity (M4 muscarinic receptor)	M3 Efficacy (M3 muscarinic receptor; [1])	M1 Efficacy (M1 muscarinic receptor; [1])	M2 Efficacy (M2 muscarinic receptor; [1])	M4 Efficacy (M4 muscarinic receptor; [1])
Cc1ccccc1C1(O)CCN(CC2CC3C=CC2C3)CC1 (stereo not drawn) [Compound 171]		25 to 100%	< 25%	25 to 100%					+ (activity was measured to be greater than 5.0 μM)	++ (activity was measured to be from 1.0 μM to 5.0 μM)	+ (activity was measured to be greater than 5.0 μM)	+++ (activity was measured to be less than 1.0 μM)				
COc1ccc(Cl)cc1C1(OC)CCN(C[C@H]2C[C@H]3C=C[C@@H]2C3)CC1 [Compound 140, 1-(((1S,2S,4S)-bicyclo[2.2.1]hept-5-en-2-yl)methyl)-4-(5-chloro-2-methoxyphenyl)-4-methoxypiperidine]	< 25%	25 to 100%	25 to 100%	25 to 100%					+ (activity was measured to be greater than 5.0 μM)	++ (activity was measured to be from 1.0 μM to 5.0 μM)	++ (activity was measured to be from 1.0 μM to 5.0 μM)	+++ (activity was measured to be less than 1.0 μM)				
CCOC(=O)N1[C@@H]2CC[C@@H]1CC(N1CCC(c3cc(C)ccc3OC)CC1)C2 (stereo partly drawn) [Compound 363]	25 to 100%	25 to 100%	25 to 100%	25 to 100%					+ (activity was measured to be greater than 5.0 μM)	+++ (activity was measured to be less than 1.0 μM)	+++ (activity was measured to be less than 1.0 μM)	+++ (activity was measured to be less than 1.0 μM)				
